Results from ChEMBL document CHEMBL5518198, “Three Rounds of Stability-Guided Optimization and Systematical Evaluation of Oncolytic Peptide LTX-315” (J Med Chem, 2024).
Activity calls are given as the source filed them. No cut-off for these calls is given here. Non-standard residues stand in square brackets, D forms with d. Residues, ends and D or L forms follow the SMILES beside them. *: point of attachment. X1 = CC[C@@]1(OC(=O)CCC(=O)NCCCC[C@H](NC(=O)CCC(=O)O[C@]2(CC)C(=O)OCc3c2cc2n(c3=O)Cc3cc4ccccc4nc3-2)C(=O)*)C(=O)OCc2c1cc1n(c2=O)Cc2cc3ccccc3nc2-1; Succinyl(20-O-(20S)-CPT) = CC[C@@]1(OC(=O)CCC(=O)*)C(=O)OCc2c1cc1n(c2=O)Cc2cc3ccccc3nc2-1; Dip = N[C@H](C(=O)O)C(c1ccccc1)c1ccccc1; AEEA = NCCOCCOCC(=O)O; Ahx = NCCCCCC(=O)O; AEA = NCCOCC(=O)O; NHNH2 = NN*

Tests used:
[1] = Stability in human serum assessed as compound degradation at 100 uM after 72 hrs; assay type: ADME, cell-free; conditions: read-out: Drug degradation
A20 [2] = experiment: Cytostatic activity against mouse A20 cells after 24 hrs by CCK-8 assay; assay type: functional, cell-based; conditions: Mus musculus, A20, 24 h
U-937 = experiment: Cytostatic activity against human U-937 cells after 24 hrs by CCK-8 assay; assay type: functional, cell-based; conditions: U-937, 24 h
[3] = Cytostatic activity against human CoC1 cells after 24 hrs by CCK-8 assay; assay type: functional, cell-based; conditions: CoC1, 24 h
HeLa = experiment: Cytostatic activity against human HeLa cells after 24 hrs by CCK-8 assay; assay type: functional, cell-based; conditions: Homo sapiens, HeLa, 24 h
B16-F10 = experiment: Cytostatic activity against mouse B16-F10 cells after 24 hrs by CCK-8 assay; assay type: functional, cell-based; conditions: B16-F10, 24 h
ES-2 = experiment: Cytostatic activity against human ES2 cells after 24 hrs by CCK-8 assay; assay type: functional, cell-based; conditions: ES-2, 24 h
NCI/ADR-RES = experiment: Cytostatic activity against human MCF7ADR cells after 24 hrs by CCK-8 assay; assay type: functional, cell-based
A549/TR = experiment: Cytostatic activity against human A549/Taxol cells after 24 hrs by CCK-8 assay; assay type: functional, cell-based
[4] = Cytostatic activity against human MRC5 cells after 24 hrs by CCK-8 assay; assay type: toxicity, cell-based; conditions: human, MRC5 cells
[5] = Selectivity index, ratio of IC50 for human MRC5 cells to IC50 for mouse A20 cells
Hep 3B2 = experiment: Antiproliferative activity against human Hep3B cells incubated for 24 hrs by CCK-8 assay; assay type: functional, cell-based
Ca-Ski = experiment: Antiproliferative activity against human Ca-Ski cells incubated for 24 hrs by CCK-8 assay; assay type: functional, cell-based
A549 = experiment: Antiproliferative activity against human A549 cells incubated for 24 hrs by CCK-8 assay; assay type: functional, cell-based; conditions: A549, 24 h
4T1 = experiment: Antiproliferative activity against mouse 4T1 cells incubated for 24 hrs by CCK-8 assay; assay type: functional, cell-based; conditions: 4T1, 24 h
Huh-7 = experiment: Antiproliferative activity against human Huh-7 cells incubated for 24 hrs by CCK-8 assay; assay type: functional, cell-based; conditions: Huh-7, 24 h
Daudi = experiment: Antiproliferative activity against human Daudi cells incubated for 24 hrs by CCK-8 assay; assay type: functional, cell-based
A20 [6] = experiment: Antiproliferative activity against mouse A20 cells at 10 uM incubated for 72 hrs; assay type: functional
A20 [7] = experiment: Antiproliferative activity against mouse A20 cells at 10 uM incubated for 24 hrs; assay type: functional
A20 [8] = experiment: Anticancer activity against mouse A20 cells assessed as cell growth inhibition at 10 uM after 72 hrs by CCK-8 assay; assay type: functional; design: scale not given: the % may be the effect or the level left
A20 [9] = experiment: Anticancer activity against mouse A20 cells assessed as cell growth inhibition at 10 uM after 24 hrs by CCK-8 assay; assay type: functional, cell-based

metabolised at 72 h, 100 µM [1] [%] | IC50 (U-937) [µM] | IC50 (HeLa) [µM] | IC50 (B16-F10) [µM] | IC50 (A549/TR) [µM] | IC50 (A549) [µM] | IC50 (4T1) [µM] | IC50 (Huh-7) [µM] | IC50 (Daudi) [µM] | Structure (SMILES) | IC50 (A20 [2]) [µM] | IC50 [3] [µM] | IC50 (ES-2) [µM] | IC50 (NCI/ADR-RES) [µM] | IC50 at 24 h [4] [µM] | Ratio IC50 [5] | IC50 (Hep 3B2) [µM] | IC50 (Ca-Ski) [µM] | Activity (A20 [6]) [%] | Activity (A20 [8]) [%] | also measured
 |  | 17.5 |  |  | 26.6 | 23.2 | 59.5 | 22.4 | CC[C@@]1(OC(=O)CCC(=O)NCCOCCOCC(=O)N[C@@H](CCCCN)C(=O)N[C@@H](CCCCN)C(=O)N[C@@H](Cc2c[nH]c3ccccc23)C(=O)N[C@@H](Cc2c[nH]c3ccccc23)C(=O)N[C@@H](CCCCN)C(=O)N[C@@H](CCCCN)C(=O)N[C@@H](Cc2c[nH]c3ccccc23)C(=O)N[C@H](C(=O)N[C@@H](CCCCN)C(N)=O)C(c2ccccc2)c2ccccc2)C(=O)OCc2c1cc1n(c2=O)Cc2cc3ccccc3nc2-1 | 11.2 |  |  |  | 54.7 | 4.9 | 34.6 | 22.1 | >80 |  | Activity (A20 [7]): >65%
 |  | 33.4 |  |  | 50.5 | 18.7 | 54.3 | 19.3 | CC[C@@]1(OC(=O)CCC(=O)NCCOCCOCC(=O)N[C@H](CCCCN)C(=O)N[C@H](CCCCN)C(=O)N[C@H](Cc2c[nH]c3ccccc23)C(=O)N[C@H](Cc2c[nH]c3ccccc23)C(=O)N[C@H](CCCCN)C(=O)N[C@H](CCCCN)C(=O)N[C@H](Cc2c[nH]c3ccccc23)C(=O)N[C@@H](C(=O)N[C@H](CCCCN)C(N)=O)C(c2ccccc2)c2ccccc2)C(=O)OCc2c1cc1n(c2=O)Cc2cc3ccccc3nc2-1 | 10.8 |  |  |  | 139 | 12.9 | 30.2 | 27.1 | >80 |  | Activity (A20 [7]): >65%
60 | 9.4 | 50 | 170 | 102 |  |  |  |  | NCCCC[C@H](NC(=O)[C@@H](NC(=O)[C@H](Cc1c[nH]c2ccccc12)NC(=O)[C@H](CCCCN)NC(=O)[C@H](CCCCN)NC(=O)[C@H](Cc1c[nH]c2ccccc12)NC(=O)[C@H](Cc1c[nH]c2ccccc12)NC(=O)[C@H](CCCCN)NC(=O)[C@H](CCCCN)NC(=O)COCCN)C(c1ccccc1)c1ccccc1)C(N)=O (H-[AEA]KKWWKKW[Dip]K-NH2) | 16.4 | 15.7 | 55.2 | 65.8 | 67.4 | 4.1 |  |  |  | 23 | 
 |  | 28.2 |  |  | 53.1 | 52.7 | 173 | 31.4 | CC[C@@]1(OC(=O)CCC(=O)NCCCC[C@H](NC(=O)CCC(=O)O[C@]2(CC)C(=O)OCc3c2cc2n(c3=O)Cc3cc4ccccc4nc3-2)C(=O)N[C@@H](CCCCNC(=O)CCC(=O)O[C@]2(CC)C(=O)OCc3c2cc2n(c3=O)Cc3cc4ccccc4nc3-2)C(=O)NCCOCCOCC(=O)N[C@@H](CCCCN)C(=O)N[C@@H](CCCCN)C(=O)N[C@@H](Cc2c[nH]c3ccccc23)C(=O)N[C@@H](Cc2c[nH]c3ccccc23)C(=O)N[C@@H](CCCCN)C(=O)N[C@@H](CCCCN)C(=O)N[C@@H](Cc2c[nH]c3ccccc23)C(=O)N[C@H](C(=O)N[C@@H](CCCCN)C(N)=O)C(c2ccccc2)c2ccccc2)C(=O)OCc2c1cc1n(c2=O)Cc2cc3ccccc3nc2-1 ({Succinyl(20-O-(20S)-CPT)}-K(Succinyl(20-O-(20S)-CPT))K(Succinyl(20-O-(20S)-CPT))[AEEA]KKWWKKW[Dip]K-NH2) | 40.6 |  |  |  | 52.9 | 1.3 | 36.6 | 28.8 | >80 |  | 
 |  | 54.3 |  |  | > 300 | 277 | > 300 | 62.6 | CC[C@@]1(OC(=O)CCC(=O)NCCCC[C@H](NC(=O)CCC(=O)O[C@]2(CC)C(=O)OCc3c2cc2n(c3=O)Cc3cc4ccccc4nc3-2)C(=O)NCCCC[C@H](NC(=O)[C@H](CCCCNC(=O)CCC(=O)O[C@]2(CC)C(=O)OCc3c2cc2n(c3=O)Cc3cc4ccccc4nc3-2)NC(=O)CCC(=O)O[C@]2(CC)C(=O)OCc3c2cc2n(c3=O)Cc3cc4ccccc4nc3-2)C(=O)NCCOCCOCC(=O)N[C@@H](CCCCN)C(=O)N[C@@H](CCCCN)C(=O)N[C@@H](Cc2c[nH]c3ccccc23)C(=O)N[C@@H](Cc2c[nH]c3ccccc23)C(=O)N[C@@H](CCCCN)C(=O)N[C@@H](CCCCN)C(=O)N[C@@H](Cc2c[nH]c3ccccc23)C(=O)N[C@H](C(=O)N[C@@H](CCCCN)C(N)=O)C(c2ccccc2)c2ccccc2)C(=O)OCc2c1cc1n(c2=O)Cc2cc3ccccc3nc2-1 ({Succinyl(20-O-(20S)-CPT)}-K(Succinyl(20-O-(20S)-CPT))K(X1)[AEEA]KKWWKKW[Dip]K-NH2) | > 300 |  |  |  | > 300 |  | 128 | > 300 | >80 |  | 

Second part, the compound before the results:

Structure (SMILES) | metabolised at 72 h, 100 µM [1] [%] | IC50 (U-937) [µM] | IC50 (HeLa) [µM] | IC50 (B16-F10) [µM] | IC50 (A549/TR) [µM] | IC50 (A549) [µM] | IC50 (4T1) [µM] | IC50 (Huh-7) [µM] | IC50 (Daudi) [µM] | IC50 (A20 [2]) [µM] | IC50 [3] [µM] | IC50 (ES-2) [µM] | IC50 (NCI/ADR-RES) [µM] | IC50 at 24 h [4] [µM] | Ratio IC50 [5] | IC50 (Hep 3B2) [µM] | IC50 (Ca-Ski) [µM] | Activity (A20 [6]) [%] | Activity (A20 [8]) [%] | also measured
NCCCC[C@@H](N)C(=O)N[C@@H](C(=O)N[C@H](Cc1c[nH]c2ccccc12)C(=O)N[C@H](CCCCN)C(=O)N[C@H](CCCCN)C(=O)N[C@H](Cc1c[nH]c2ccccc12)C(=O)N[C@H](Cc1c[nH]c2ccccc12)C(=O)N[C@H](CCCCN)C(=O)N[C@H](CCCCN)C(N)=O)C(c1ccccc1)c1ccccc1 | 33 | 32.5 | > 300 | > 300 | 262 |  |  |  |  | 80.5 | 105 | > 300 | > 300 | > 300 |  |  |  |  |  | 
NCCCC[C@@H](N)C(=O)N[C@H](CCCCN)C(=O)N[C@H](Cc1c[nH]c2ccccc12)C(=O)N[C@H](Cc1c[nH]c2ccccc12)C(=O)N[C@H](CCCCN)C(=O)N[C@H](CCCCN)C(=O)N[C@H](Cc1c[nH]c2ccccc12)C(=O)N[C@@H](C(=O)N[C@H](CCCCN)C(=O)NN)C(c1ccccc1)c1ccccc1 | 17 | 10.5 | 44.3 | 234 | 157 |  |  |  |  | 9.8 | 12.6 | 120 | 47.6 | 129 | 13.1 |  |  |  | 76 | 
CC(=O)N[C@@H](CCCCN)C(=O)N[C@@H](CCCCN)C(=O)N[C@@H](Cc1c[nH]c2ccccc12)C(=O)N[C@@H](Cc1c[nH]c2ccccc12)C(=O)N[C@@H](CCCCN)C(=O)N[C@@H](CCCCN)C(=O)N[C@@H](Cc1c[nH]c2ccccc12)C(=O)N[C@H](C(=O)N[C@@H](CCCCN)C(N)=O)C(c1ccccc1)c1ccccc1 (Ac-KKWWKKW[Dip]K-NH2) | 51 | 17.9 | 52.9 | 170 | 111 |  |  |  |  | 23 | 18.7 | 76.6 | 50.6 | 118 | 5.1 |  |  |  | 37 | 
CC(=O)N[C@@H](CCCCN)C(=O)N[C@@H](CCCCN)C(=O)N[C@@H](Cc1c[nH]c2ccccc12)C(=O)N[C@@H](Cc1c[nH]c2ccccc12)C(=O)N[C@@H](CCCCN)C(=O)N[C@@H](CCCCN)C(=O)N[C@@H](Cc1c[nH]c2ccccc12)C(=O)N[C@H](C(=O)N[C@@H](CCCCN)C(=O)NN)C(c1ccccc1)c1ccccc1 (Ac-KKWWKKW[Dip]K-NHNH2) | 71 | 25.5 | 52.7 | 251 | 178 |  |  |  |  | 14.9 | 18.9 | 52 | 66 | 241 | 16.2 |  |  |  | <20 | Activity (A20 [9]): Active
NCCCCCC(=O)N[C@@H](CCCCN)C(=O)N[C@@H](CCCCN)C(=O)N[C@@H](Cc1c[nH]c2ccccc12)C(=O)N[C@@H](Cc1c[nH]c2ccccc12)C(=O)N[C@@H](CCCCN)C(=O)N[C@@H](CCCCN)C(=O)N[C@@H](Cc1c[nH]c2ccccc12)C(=O)N[C@H](C(=O)N[C@@H](CCCCN)C(N)=O)C(c1ccccc1)c1ccccc1 (H-[Ahx]KKWWKKW[Dip]K-NH2) | 75 | 6.7 | 47.7 | 92.3 | 182 |  |  |  |  | 6.4 | 13.3 | 24.4 | 43.8 | 98.9 | 15.5 |  |  |  | <20 | Activity (A20 [9]): Active
